Test systems include SW-620 colon; EKVX NSCLC; MDA-MB-231 breast; DU-145 prostate; SK-MEL-5 melanoma; NCI-H460 lung; ACHN renal; U251 CNS; PC-3 prostate; HT29 colon; SF-539 CNS; HL-60(TB) leukemia; LOX IMVI melanoma.
Experiment in all cases: inhibition of tumour cell growth, NCI panel, 48 h

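Briefly, cells in 96-well plates were exposed to five compound concentrations for 48 h, and endpoints were estimated by linear interpolation. TGI marks complete inhibition of growth.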

For the compound `Nn1c(CCCCCCCCc2nnc(COc3ccc(Cl)cc3)n2N)nnc1COc1ccc(Cl)cc1`, the TGI in the test with SW-620 colon, with EKVX NSCLC, with MDA-MB-231 breast, with DU-145 prostate, in the test with SK-MEL-5 melanoma and in the test on NCI-H460 lung was > 100 µM each time. Also, the TGI in the test with ACHN renal, with U251 CNS, in the test with PC-3 prostate and in the test on HT29 colon was > 100 µM throughout.

As to `Cc1ccn2c(=O)cc(-c3ccccc3)nc2c1`, the TGI in the test with SW-620 colon, in the test on EKVX NSCLC, in the test on SF-539 CNS, with MDA-MB-231 breast, with DU-145 prostate and in the test with HL-60(TB) leukemia was > 100 µM each time. Moreover, the TGI in the test with SK-MEL-5 melanoma, with NCI-H460 lung, with ACHN renal, with U251 CNS, in the test with PC-3 prostate and with HT29 colon was > 100 µM in each case.

Regarding `Nc1ccc(N=Nc2ccccc2)cc1`, the TGI was > 100 µM in the test on SW-620 colon; > 100 µM in the test with EKVX NSCLC; > 100 µM in the test with SF-539 CNS; 88 µM with MDA-MB-231 breast; > 100 µM with HL-60(TB) leukemia; > 100 µM with SK-MEL-5 melanoma. Also, the TGI in the test on NCI-H460 lung, in the test with LOX IMVI melanoma, in the test with ACHN renal, in the test with U251 CNS, in the test with PC-3 prostate and in the test on HT29 colon was > 100 µM throughout.

Consider `CCCSc1ccc2[nH]c(/N=C/c3ccco3)cc2c1`, for which the TGI in the test on SW-620 colon was > 100 µM; in the test on EKVX NSCLC, 68.8 µM; in the test on SF-539 CNS it was 42.5 µM; in the test on DU-145 prostate, > 100 µM; in the test on HL-60(TB) leukemia, 84.4 µM; with SK-MEL-5 melanoma it was 32.6 µM. For the same compound, the TGI in the test on LOX IMVI melanoma, in the test with ACHN renal, with PC-3 prostate and with HT29 colon was > 100 µM each time.

Consider `NC(=O)NNC(=O)c1nc[nH]c1[N+](=O)[O-]`, for which the TGI with SW-620 colon, in the test on EKVX NSCLC, in the test on SF-539 CNS, in the test with MDA-MB-231 breast, in the test with DU-145 prostate and with SK-MEL-5 melanoma was > 100 µM each time. Moreover, the TGI in the test on NCI-H460 lung, in the test on LOX IMVI melanoma, with U251 CNS, in the test on PC-3 prostate and in the test on HT29 colon was > 100 µM in each case.

In the case of `CC1=NN(c2ccc(S(=O)(=O)O)cc2)C2(C1)SCC(=O)N2c1nc2ccccc2s1` (stereo not given), the TGI with SW-620 colon, in the test on EKVX NSCLC, with SF-539 CNS, with MDA-MB-231 breast, in the test on DU-145 prostate and in the test with SK-MEL-5 melanoma was > 100 µM each time. For the same compound, the TGI in the test with NCI-H460 lung, in the test with LOX IMVI melanoma, in the test on ACHN renal, with U251 CNS, in the test on PC-3 prostate and with HT29 colon was > 100 µM each time.

For the compound `CC(=O)N1N=C(c2ccc3ccccc3c2O)CC1C(=O)c1ccco1` (stereo not given), the TGI in the test with SW-620 colon was > 100 µM; in the test on SF-539 CNS, 83.8 µM; in the test with MDA-MB-231 breast it was > 100 µM; in the test on DU-145 prostate it was > 100 µM; in the test on SK-MEL-5 melanoma it was > 100 µM; in the test with NCI-H460 lung, > 100 µM. In addition, the TGI with ACHN renal, with U251 CNS, with PC-3 prostate and in the test with HT29 colon was > 100 µM each time.

`COC(=O)C1=C2SCc3cccc(c3)CSC3=C(C(=O)OC)SC(=C(S2)S1)S3`: the TGI is > 100 µM in the test with SW-620 colon; 74.9 µM with MDA-MB-231 breast; > 100 µM in the test on DU-145 prostate; 80.9 µM with HL-60(TB) leukemia; > 100 µM in the test with SK-MEL-5 melanoma; > 100 µM in the test on NCI-H460 lung. Also, the TGI in the test on ACHN renal, with U251 CNS and in the test with PC-3 prostate was > 100 µM each time.

With `O=C1c2ccccc2-c2nc(-c3cccc([N+](=O)[O-])c3)nnc21`, the TGI with SW-620 colon was 62.8 µM; in the test with EKVX NSCLC, 61.1 µM; in the test on SF-539 CNS, > 100 µM; in the test with MDA-MB-231 breast, > 100 µM; in the test with DU-145 prostate, 17 µM; in the test with HL-60(TB) leukemia it was 16.8 µM. The TGI in the test on SK-MEL-5 melanoma is 7.65 µM; in the test on NCI-H460 lung it was 24.8 µM; in the test with ACHN renal it was 16.7 µM; with U251 CNS, > 100 µM; in the test on PC-3 prostate it was > 100 µM; in the test with HT29 colon, 5.43 µM.

Consider `CC(=O)Nc1cc2c(s1)CCC1CC(=O)NN=C21` (stereo not given), for which the TGI in the test with SW-620 colon, in the test with EKVX NSCLC, in the test on SF-539 CNS, with HL-60(TB) leukemia, with SK-MEL-5 melanoma and with NCI-H460 lung was > 100 µM throughout. Moreover, the TGI in the test with LOX IMVI melanoma, in the test on ACHN renal, in the test with U251 CNS and with HT29 colon was > 100 µM throughout.

Regarding `O=C(Cc1ccccc1)NN1C(=O)/C(=C\c2cccc(O)c2)SC1=Nc1ccccc1`, the TGI in the test on SW-620 colon, with EKVX NSCLC, with SF-539 CNS, in the test on MDA-MB-231 breast, in the test with DU-145 prostate and in the test on SK-MEL-5 melanoma was > 100 µM in each case. The TGI in the test with NCI-H460 lung, with ACHN renal, in the test with U251 CNS and with HT29 colon was > 100 µM each time.

`COC(=O)N/N=C(\C)C(CN1CCCCC1)C(C1=C(O)c2ccccc2OC1)c1ccccc1` (stereo not given): the TGI with SW-620 colon, in the test with EKVX NSCLC, in the test with SF-539 CNS, in the test on HL-60(TB) leukemia, in the test on SK-MEL-5 melanoma and in the test with NCI-H460 lung was > 100 µM each time. Further, the TGI in the test on LOX IMVI melanoma, in the test on ACHN renal, in the test on U251 CNS and with HT29 colon was > 100 µM in each case.

On to `CC1Cn2c(nc3ccccc32)NC1=O` (stereo not given), for which the TGI with SW-620 colon, in the test on EKVX NSCLC, in the test with SF-539 CNS, with MDA-MB-231 breast, in the test with HL-60(TB) leukemia and in the test with SK-MEL-5 melanoma was > 100 µM in each case. For the same compound, the TGI with NCI-H460 lung, with LOX IMVI melanoma, in the test with ACHN renal, in the test with U251 CNS, in the test with PC-3 prostate and in the test on HT29 colon was > 100 µM each time.

(Values after PubChem BioAssay (NCI).)
